Assay results published in paper PMC5290327, “SC83288 is a clinical development candidate for the treatment of severe malaria” (Nature Communications, 2017).

Key:
Test in all cases: KINOMEscan
Assay type in all cases: binding
Details in all cases: read-out: Remaining enzyme activity
BMPR2 = target: T1, BMPR2 (Homo sapiens, UniProt Q13873)
T1 construct: purchased Ambit (DiscoverX) KINOMEscan; Cerep
Outline: (§1)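 Kinase preparations were T7 phage fusions produced in E. coli (32 °C until lysis, lysates clarified) or HEK-293-expressed proteins with DNA tags. These were mixed with immobilized active-site ligand and SC81458 at 10 μM. The amount of kinase in eluates was determined by qPCR.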

KIT = target: T2, KIT (Homo sapiens, UniProt P10721)
T2 construct: purchased Ambit (DiscoverX) KINOMEscan; Cerep
T2 sequence (P10721 26-976): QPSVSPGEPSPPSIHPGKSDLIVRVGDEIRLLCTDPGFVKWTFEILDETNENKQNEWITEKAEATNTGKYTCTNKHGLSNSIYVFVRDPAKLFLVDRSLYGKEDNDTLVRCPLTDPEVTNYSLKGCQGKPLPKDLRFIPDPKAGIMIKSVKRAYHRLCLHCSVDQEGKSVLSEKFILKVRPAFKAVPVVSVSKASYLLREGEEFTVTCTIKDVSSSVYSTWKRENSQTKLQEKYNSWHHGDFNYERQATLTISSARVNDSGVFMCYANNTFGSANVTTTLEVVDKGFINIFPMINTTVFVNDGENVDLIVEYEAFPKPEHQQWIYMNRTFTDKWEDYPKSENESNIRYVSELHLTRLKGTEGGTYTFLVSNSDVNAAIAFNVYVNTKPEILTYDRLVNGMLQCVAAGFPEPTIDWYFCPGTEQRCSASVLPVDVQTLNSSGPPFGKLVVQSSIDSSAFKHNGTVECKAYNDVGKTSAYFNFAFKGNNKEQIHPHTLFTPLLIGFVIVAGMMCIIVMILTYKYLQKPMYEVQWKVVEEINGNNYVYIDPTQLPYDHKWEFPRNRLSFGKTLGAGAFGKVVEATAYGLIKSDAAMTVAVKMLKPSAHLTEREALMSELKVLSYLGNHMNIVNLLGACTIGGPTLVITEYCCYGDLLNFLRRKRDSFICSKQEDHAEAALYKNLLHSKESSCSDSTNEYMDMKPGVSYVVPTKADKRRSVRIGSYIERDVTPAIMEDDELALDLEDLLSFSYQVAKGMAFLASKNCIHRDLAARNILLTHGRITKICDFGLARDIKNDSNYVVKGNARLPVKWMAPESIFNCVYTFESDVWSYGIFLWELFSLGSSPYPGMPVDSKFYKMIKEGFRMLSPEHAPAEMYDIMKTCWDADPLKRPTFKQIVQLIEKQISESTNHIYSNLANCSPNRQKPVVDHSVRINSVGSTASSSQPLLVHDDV
Outline: as §1

AKT1 = target: T3, AKT1 (Homo sapiens, UniProt P31749)
T3 construct: purchased Ambit (DiscoverX) KINOMEscan; Cerep
T3 sequence (P31749 whole entry): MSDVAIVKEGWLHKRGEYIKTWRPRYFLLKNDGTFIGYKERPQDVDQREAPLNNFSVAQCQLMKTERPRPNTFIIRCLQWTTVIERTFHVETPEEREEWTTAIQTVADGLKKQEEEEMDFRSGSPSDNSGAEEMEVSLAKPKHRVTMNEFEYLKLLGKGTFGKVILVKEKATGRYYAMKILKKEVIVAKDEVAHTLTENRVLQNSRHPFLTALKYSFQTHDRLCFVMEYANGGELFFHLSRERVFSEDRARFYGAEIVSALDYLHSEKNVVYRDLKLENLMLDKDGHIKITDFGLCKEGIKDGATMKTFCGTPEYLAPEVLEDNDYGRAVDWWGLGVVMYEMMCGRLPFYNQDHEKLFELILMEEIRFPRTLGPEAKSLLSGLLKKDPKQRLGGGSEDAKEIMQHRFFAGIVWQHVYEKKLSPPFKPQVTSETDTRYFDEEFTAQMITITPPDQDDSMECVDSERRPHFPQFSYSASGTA
Outline: as §1

ROCK2 = target: T4, ROCK2 (Homo sapiens, UniProt O75116)
T4 construct: purchased Ambit (DiscoverX) KINOMEscan; Cerep
Outline: as §1

TRKc = target: T5, TRKc (Homo sapiens, UniProt Q16288)
T5 construct: purchased Ambit (DiscoverX) KINOMEscan; Cerep
T5 sequence (Q16288 32-839): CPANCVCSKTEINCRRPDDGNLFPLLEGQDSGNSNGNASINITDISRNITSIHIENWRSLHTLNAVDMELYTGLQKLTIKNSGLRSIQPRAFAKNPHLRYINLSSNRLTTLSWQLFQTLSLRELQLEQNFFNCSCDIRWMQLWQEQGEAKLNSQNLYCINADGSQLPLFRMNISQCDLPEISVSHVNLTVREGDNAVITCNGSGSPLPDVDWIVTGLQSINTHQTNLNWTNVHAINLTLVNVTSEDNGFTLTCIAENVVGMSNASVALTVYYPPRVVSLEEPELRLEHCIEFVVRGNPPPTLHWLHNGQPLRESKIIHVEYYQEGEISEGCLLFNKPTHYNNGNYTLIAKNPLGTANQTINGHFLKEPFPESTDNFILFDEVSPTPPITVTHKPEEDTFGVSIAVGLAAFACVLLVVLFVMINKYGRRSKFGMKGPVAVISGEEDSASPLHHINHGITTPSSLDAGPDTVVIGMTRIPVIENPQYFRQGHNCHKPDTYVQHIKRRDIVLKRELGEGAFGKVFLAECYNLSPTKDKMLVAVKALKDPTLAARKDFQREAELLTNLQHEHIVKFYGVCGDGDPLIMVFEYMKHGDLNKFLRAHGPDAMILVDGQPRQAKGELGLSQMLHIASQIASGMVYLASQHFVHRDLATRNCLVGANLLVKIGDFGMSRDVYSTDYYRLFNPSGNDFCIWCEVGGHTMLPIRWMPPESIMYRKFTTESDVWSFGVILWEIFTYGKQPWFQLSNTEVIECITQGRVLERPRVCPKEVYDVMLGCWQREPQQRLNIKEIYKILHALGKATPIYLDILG
Outline: as §1

PKAC-apha = target: T6, PKAC-apha (Homo sapiens, UniProt P17612)
T6 construct: purchased Ambit (DiscoverX) KINOMEscan; Cerep
Outline: as §1

CDK8 = target: T7, CDK8 (Homo sapiens, UniProt P49336)
T7 construct: purchased Ambit (DiscoverX) KINOMEscan; Cerep
Outline: as §1

PHKG1 = target: T8, PHKG1 (Homo sapiens, UniProt Q16816)
T8 construct: purchased Ambit (DiscoverX) KINOMEscan; Cerep
Outline: as §1

PRKX = target: T9, PRKX (Homo sapiens, UniProt P51817)
T9 construct: purchased Ambit (DiscoverX) KINOMEscan; Cerep
Outline: as §1

ACVR2a = target: T10, ACVR2a (Homo sapiens, UniProt P27037)
T10 construct: purchased Ambit (DiscoverX) KINOMEscan; Cerep
Outline: as §1

CLK3 = target: T11, CLK3 (Homo sapiens, UniProt P49761)
T11 construct: purchased Ambit (DiscoverX) KINOMEscan; Cerep
Outline: as §1

PLK3 = target: T12, PLK3 (Homo sapiens, UniProt Q9H4B4)
T12 construct: purchased Ambit (DiscoverX) KINOMEscan; Cerep
Outline: as §1

[1] = target: T13, RPS6KA2(Kin.Dom.2-C-term) (Homo sapiens, UniProt Q15349)
T13 construct: RPS6KA2(Kin.Dom.2-C-term); purchased Ambit (DiscoverX) KINOMEscan; Cerep
Outline: as §1

DCAMKL2 = target: T14, DCAMKL2 (Homo sapiens, UniProt Q8N568)
T14 construct: purchased Ambit (DiscoverX) KINOMEscan; Cerep
Outline: as §1

NEK2 = target: T15, NEK2 (Homo sapiens, UniProt P51955)
T15 construct: purchased Ambit (DiscoverX) KINOMEscan; Cerep
Outline: as §1

CAMK1d = target: T16, CAMK1d (Homo sapiens, UniProt Q8IU85)
T16 construct: purchased Ambit (DiscoverX) KINOMEscan; Cerep
T16 sequence (Q8IU85 whole entry): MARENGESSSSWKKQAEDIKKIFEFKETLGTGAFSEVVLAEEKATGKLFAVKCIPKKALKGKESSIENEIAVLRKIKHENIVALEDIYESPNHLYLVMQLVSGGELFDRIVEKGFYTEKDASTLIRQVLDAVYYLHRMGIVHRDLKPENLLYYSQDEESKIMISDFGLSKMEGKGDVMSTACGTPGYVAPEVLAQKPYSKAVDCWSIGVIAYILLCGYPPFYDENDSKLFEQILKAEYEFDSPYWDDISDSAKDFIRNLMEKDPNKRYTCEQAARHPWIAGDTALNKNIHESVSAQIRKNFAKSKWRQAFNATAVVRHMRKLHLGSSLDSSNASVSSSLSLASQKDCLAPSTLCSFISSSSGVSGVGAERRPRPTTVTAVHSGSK
Outline: as §1

EPHA5 = target: T17, EPHA5 (Homo sapiens, UniProt P54756)
T17 construct: purchased Ambit (DiscoverX) KINOMEscan; Cerep
Outline: as §1

CLK2 = target: T18, CLK2 (Homo sapiens, UniProt P49760)
T18 construct: purchased Ambit (DiscoverX) KINOMEscan; Cerep
Outline: as §1

FYN = target: T19, FYN (Homo sapiens, UniProt P06241)
T19 construct: purchased Ambit (DiscoverX) KINOMEscan; Cerep
Outline: as §1

PIM3 = target: T20, PIM3 (Homo sapiens, UniProt Q86V86)
T20 construct: purchased Ambit (DiscoverX) KINOMEscan; Cerep
Outline: as §1

PRKCH = target: T21, PRKCH (Homo sapiens, UniProt P24723)
T21 construct: purchased Ambit (DiscoverX) KINOMEscan; Cerep
T21 sequence (P24723 whole entry): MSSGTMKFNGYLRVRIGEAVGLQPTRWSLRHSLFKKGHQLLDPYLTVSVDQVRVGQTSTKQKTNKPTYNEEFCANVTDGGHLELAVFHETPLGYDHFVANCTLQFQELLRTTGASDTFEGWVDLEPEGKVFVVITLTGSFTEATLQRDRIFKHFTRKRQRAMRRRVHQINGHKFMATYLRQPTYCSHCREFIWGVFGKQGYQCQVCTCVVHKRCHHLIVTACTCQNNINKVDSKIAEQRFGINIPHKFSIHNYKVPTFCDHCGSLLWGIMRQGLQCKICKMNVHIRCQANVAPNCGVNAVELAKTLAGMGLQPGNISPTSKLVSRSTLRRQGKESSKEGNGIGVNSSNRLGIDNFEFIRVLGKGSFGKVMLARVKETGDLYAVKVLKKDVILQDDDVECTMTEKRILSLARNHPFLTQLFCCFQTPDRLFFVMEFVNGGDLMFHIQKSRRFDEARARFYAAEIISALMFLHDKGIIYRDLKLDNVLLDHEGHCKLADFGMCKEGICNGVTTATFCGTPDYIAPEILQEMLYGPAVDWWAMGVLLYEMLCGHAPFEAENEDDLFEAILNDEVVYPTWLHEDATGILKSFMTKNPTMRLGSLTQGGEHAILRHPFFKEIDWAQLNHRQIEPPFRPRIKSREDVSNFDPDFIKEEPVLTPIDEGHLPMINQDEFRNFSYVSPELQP
Outline: as §1

ERBB4 = target: T22, ERBB4 (Homo sapiens, UniProt Q15303)
T22 construct: purchased Ambit (DiscoverX) KINOMEscan; Cerep
Outline: as §1

CDK3 = target: T23, CDK3 (Homo sapiens, UniProt Q00526)
T23 construct: purchased Ambit (DiscoverX) KINOMEscan; Cerep
Outline: as §1

[2] = target: T24, EGFR(L747-E752del, P753S) (Homo sapiens, UniProt P00533, DEL747-752/P753S)
T24 construct: purchased Ambit (DiscoverX) KINOMEscan; Cerep
Outline: as §1

FLT3(K663Q) = target: T25, FLT3(K663Q) (Homo sapiens, UniProt P36888, K663Q)
T25 construct: purchased Ambit (DiscoverX) KINOMEscan; Cerep
Outline: as §1

CDC2L1 = target: T26, CDC2L1 (Homo sapiens, UniProt P21127)
T26 construct: purchased Ambit (DiscoverX) KINOMEscan; Cerep
T26 sequence (P21127 whole entry): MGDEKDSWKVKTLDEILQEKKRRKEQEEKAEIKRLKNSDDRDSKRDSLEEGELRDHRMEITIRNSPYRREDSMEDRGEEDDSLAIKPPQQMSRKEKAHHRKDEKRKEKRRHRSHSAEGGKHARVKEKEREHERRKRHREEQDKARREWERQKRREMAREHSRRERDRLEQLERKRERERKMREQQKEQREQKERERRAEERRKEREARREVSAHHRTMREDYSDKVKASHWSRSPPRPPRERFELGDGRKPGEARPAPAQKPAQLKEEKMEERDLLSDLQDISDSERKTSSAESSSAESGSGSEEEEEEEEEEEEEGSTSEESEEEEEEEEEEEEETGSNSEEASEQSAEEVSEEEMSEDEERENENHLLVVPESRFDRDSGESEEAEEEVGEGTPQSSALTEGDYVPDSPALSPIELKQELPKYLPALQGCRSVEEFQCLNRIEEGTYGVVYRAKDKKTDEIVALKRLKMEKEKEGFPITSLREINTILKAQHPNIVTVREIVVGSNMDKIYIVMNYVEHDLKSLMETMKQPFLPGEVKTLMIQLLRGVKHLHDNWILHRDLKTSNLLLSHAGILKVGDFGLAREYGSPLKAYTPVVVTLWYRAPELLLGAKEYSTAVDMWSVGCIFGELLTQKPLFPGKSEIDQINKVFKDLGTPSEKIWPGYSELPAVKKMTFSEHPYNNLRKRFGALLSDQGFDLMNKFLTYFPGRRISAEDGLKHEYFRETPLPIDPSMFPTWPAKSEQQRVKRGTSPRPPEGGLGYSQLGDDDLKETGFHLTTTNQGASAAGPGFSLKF
Outline: as §1

MAPKAPK2 = target: T27, MAPKAPK2 (Homo sapiens, UniProt P49137)
T27 construct: purchased Ambit (DiscoverX) KINOMEscan; Cerep
Outline: as §1

ERK8 = target: T28, ERK8 (Homo sapiens, UniProt Q8TD08)
T28 construct: purchased Ambit (DiscoverX) KINOMEscan; Cerep
Outline: as §1

CDK11 = target: T29, CDK11 (Homo sapiens, UniProt Q9BWU1)
T29 construct: purchased Ambit (DiscoverX) KINOMEscan; Cerep
Outline: as §1

DCAMKL3 = target: T30, DCAMKL3 (Homo sapiens, UniProt Q9C098)
T30 construct: purchased Ambit (DiscoverX) KINOMEscan; Cerep
Outline: as §1

CHEK2 = target: T31, CHEK2 (Homo sapiens, UniProt O96017)
T31 construct: purchased Ambit (DiscoverX) KINOMEscan; Cerep
T31 sequence (O96017 whole entry): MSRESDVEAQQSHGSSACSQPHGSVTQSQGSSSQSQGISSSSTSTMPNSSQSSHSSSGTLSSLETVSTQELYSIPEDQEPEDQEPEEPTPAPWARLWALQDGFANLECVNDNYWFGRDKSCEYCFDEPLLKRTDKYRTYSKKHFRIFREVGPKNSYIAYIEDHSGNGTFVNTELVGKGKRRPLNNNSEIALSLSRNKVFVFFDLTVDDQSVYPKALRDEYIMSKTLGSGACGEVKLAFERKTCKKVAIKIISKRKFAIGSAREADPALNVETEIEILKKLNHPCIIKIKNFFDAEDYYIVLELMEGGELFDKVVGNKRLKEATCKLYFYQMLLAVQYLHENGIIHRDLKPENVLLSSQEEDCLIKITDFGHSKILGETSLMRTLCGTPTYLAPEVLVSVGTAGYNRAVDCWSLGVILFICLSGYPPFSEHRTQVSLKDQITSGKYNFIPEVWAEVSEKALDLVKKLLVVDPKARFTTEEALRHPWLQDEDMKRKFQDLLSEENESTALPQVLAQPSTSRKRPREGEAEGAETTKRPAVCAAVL
Outline: as §1

TNIK = target: T32, TNIK (Homo sapiens, UniProt Q9UKE5)
T32 construct: purchased Ambit (DiscoverX) KINOMEscan; Cerep
Outline: as §1

IRAK1 = target: T33, IRAK1 (Homo sapiens, UniProt P51617)
T33 construct: purchased Ambit (DiscoverX) KINOMEscan; Cerep
Outline: as §1

CCCCN1CCN(C(=N)c2cccc(NC(=O)Nc3ccc(S(=O)(=O)NCc4ccc(S(N)(=O)=O)cc4)cc3)c2)CC1 [SC81458, 4-(3-(3-((4-butylpiperazin-1-yl)(imino)methyl)phenyl)ureido)-N-(4-sulfamoylbenzyl) benzenesulfonamide]
remaining binding at 10 µM (BMPR2): 100% | remaining binding at 10 µM (KIT): 60% | remaining binding at 10 µM (AKT1): 87% | remaining binding at 10 µM (ROCK2): 76% | remaining binding at 10 µM (TRKc): 100% | remaining binding at 10 µM (PKAC-apha): 75% | remaining binding at 10 µM (CDK8): 100% | remaining binding at 10 µM (PHKG1): 80% | remaining binding at 10 µM (PRKX): 72% | remaining binding at 10 µM (ACVR2a): 100% | remaining binding at 10 µM (CLK3): 100% | remaining binding at 10 µM (PLK3): 75% | remaining binding at 10 µM [1]: 100% | remaining binding at 10 µM (DCAMKL2): 100% | remaining binding at 10 µM (NEK2): 96% | remaining binding at 10 µM (CAMK1d): 91% | remaining binding at 10 µM (EPHA5): 100% | remaining binding at 10 µM (CLK2): 100% | remaining binding at 10 µM (FYN): 100% | remaining binding at 10 µM (PIM3): 100% | remaining binding at 10 µM (PRKCH): 92% | remaining binding at 10 µM (ERBB4): 100% | remaining binding at 10 µM (CDK3): 100% | remaining binding at 10 µM [2]: 84% | remaining binding at 10 µM (FLT3(K663Q)): 93% | remaining binding at 10 µM (CDC2L1): 100% | remaining binding at 10 µM (MAPKAPK2): 71% | remaining binding at 10 µM (ERK8): 100% | remaining binding at 10 µM (CDK11): 91% | remaining binding at 10 µM (DCAMKL3): 62% | remaining binding at 10 µM (CHEK2): 100% | remaining binding at 10 µM (TNIK): 100% | remaining binding at 10 µM (IRAK1): 95%
